Test results taken from patent US20030176456A1, “Methods for reducing alcohol cravings in chronic alcoholics” (priority 2001, published 2003).

Key:
GABAA α2β3γ2 receptors = assay: Xenopus oocyte expression assay, modulation of GABA current; type: cell-based, rat; conditions: saturating 1-10 μM modulator with EC50 GABA (50 μM); mean±S.D.
rats = assay: Reversal of suppression produced by chlordiazepoxide; type: in vivo, rat; conditions: 7.5 & 15 mg/kg; preliminary studies
squirrel monkeys = conditions: Rowlett et al., unpublished observation; cited from earlier work
GABAA α1β3γ2 receptors = target: T1, GABAA α1β3γ2 receptors (Rattus norvegicus, UniProt P18508+P62813); assay: Xenopus oocyte expression assay, modulation of GABA current; type: cell-based; conditions: saturating 1-10 μM modulator with EC50 GABA (50 μM); mean±S.D.
T1 construct: expressed in transfected cells; host or cells: Xenopus laevis oocytes injected with cRNA

GABAA α5β3γ2 receptors = target: T2, GABAA α5β3γ2 receptors (Rattus norvegicus, UniProt P18508+P19969); assay: as above; type: cell-based; conditions: saturating 1-10 μM modulator with EC50 GABA (30 μM); mean±S.D.
T2 construct: expressed in transfected cells; host or cells: Xenopus laevis oocytes injected with cRNA

[1] = tested on: high-alcohol drinking (HAD-1) rats; assay: Operant self-administration, EtOH (and alternate-day sucrose); type: in vivo, rat
Method: Operant, Self-administration Apparatus, Training, and Drug Treatment Procedures Behavioral Testing Apparatus. Behavioral testing was conducted in 15 standard operant chambers (Coulbourn Instruments, Allentown, Pa.) equipped with two removable levers and two dipper fluid delivery systems enclosed in sound-attenuated cubicles as previously described (June et al., 1998b; 1998e). All dipper presentations provided a 1.5-sec access to a 0.1-ml dipper, followed by a 3-sec time out period. Above each lever, three stimulus lights (red, green and yellow) were present, and a stimulus delivery/reinforcer was indicated by illumination of the middle (green) stimulus light. Responses and reinforcements were recorded and controlled by a Dell computer using the 4.0 Coulbourn L2T2 operant software package.
HAD-1 Rats. To assess the capacity of βCCt to modulate EtOH responding in the VP, rats were trained to lever press for alcohol only (see below). However, an alternate-day access paradigm was employed to investigate the capacity of systemic injections of βCCt to modify EtOH and sucrose-maintained responding. […] In the VP study rats were initially trained to orally self-administer EtOH and water in daily 60 min sessions on a concurrent FRI schedule in a two-lever choice situation. After a period of stabilization on the FRI schedule, the response requirement was increased to a concurrent FR4 schedule and the water reinforcer was gradually eliminated from the protocol and replaced with EtOH. Thus, the VP HAD-1 rats responded concurrently for EtOH solutions on both levers. The VP HAD rats were then stabilized on this regimen for 3 weeks prior to any microinfusions. Responding was considered stable when responses were within ±20% of the average responses for five consecutive days.
Rats in, the systemic study were trained in a similar manner as the VP animals, except that after a 2 week stabilization period on the concurrently presented EtOH solutions, a series of preliminary studies were conducted to determine the sucrose concentration that produced response rates and profiles similar to that of EtOH during an alternate-day presentation schedule. Following this determination, rats were then stabilized on a regimen of 10% (v/v) EtOH on day 1, and 1% (w/v) sucrose on day 2. This alternate day paradigm continued until a two weeks. After this final stabilization period, the drug treatment phase began. Again, responding was considered stable when responses were within ±20% of the average responses for five consecutive days. The position of the levers and associated dippers for each reinforcer was alternated daily to control for the establishment of lever preference under all concurrent schedules when two different reinforcers were present.
βCCt was administered 15 min before the operant session to allow for optimal absorption and CNS distribution. βCCt was tested at doses of 1-40 mg/kg. The duration of the operant sessions was 60 min, however, subjects were tested at 24 and 48 hours post-drug administration to determine if any residual drug effects remained. A minimum of 72 and maximum of 96 hours was allocated between drug treatments to permit animals to return to baseline levels. This period prevented confounding of drug treatments due to residual effects. […] All systemic drug treatments were given in a randomized design.
The microinfusions were delivered immediately before the operant session with a Harvard infusion pump, during which time animals were able to move about freely in their home cages (for details see June et al., 2001). The injection cannula extended 1 mm beyond the tip of the guide cannulae. βCCt was dissolved in artificial cerebrospinal fluid (aCSF) (composition in mM: NaCl, 120; KCl, 4.8; KH2PO4, 1.2; MgSO4, 1.2; NaHCO3, 25; CaCl2, 2.5; d-glucose, 10). […]

α6 GABAA receptor = target: T3, α6 GABAA receptor (Homo sapiens, UniProt P18507+Q16445); assay: Modulation of GABA induced currents in HEK cells; type: cell-based; conditions: 0.1 to 100 μM
T3 construct: expressed in transfected cells; host or cells: HEK cells
Method: (§1) In this study, we assessed the functional capacity of βCCt to competitively antagonize the anxiolytic versus the sedative properties of the prototypical BDZ, chlordiazepoxide.
(§2) FIGS. 21-26 represent the molecular biology data in α1-α6 GABAA receptors. […] In other words, βCCt behaves like chlordiazepoxide at the anxiety receptors. It is important to note that these effects occur at 50-100 μM, and would most likely be observed at moderate doses.

α3 GABAA receptor = target: T4, α3 GABAA receptor (Homo sapiens, UniProt P18507+P34903); assay: Modulation of GABA induced currents in HEK cells; type: cell-based
T4 construct: expressed in transfected cells; host or cells: HEK cells
Method: as §1, §2

α1 GABAA receptor = target: T5, α1 GABAA receptor (Homo sapiens, UniProt P14867+P18507); assay: Modulation of GABA induced currents in HEK cells; type: cell-based; conditions: 0.1 to 100 μM
T5 construct: expressed in transfected cells; host or cells: HEK cells
Method: as §1, §2

α2 GABAA receptor = target: T6, α2 GABAA receptor (Homo sapiens, UniProt P18507+P47869); assay: Modulation of GABA induced currents in HEK cells; type: cell-based
T6 construct: expressed in transfected cells; host or cells: HEK cells
Method: as §1, §2

α5 GABAA receptor = target: T7, α5 GABAA receptor (Homo sapiens, UniProt P18507+P31644); assay: Modulation of GABA induced currents in HEK cells; type: cell-based; conditions: 0.1 to 100 μM
T7 construct: expressed in transfected cells; host or cells: HEK cells
Method: as §1, §2

α4 GABAA receptor = target: T8, α4 GABAA receptor (Homo sapiens, UniProt P18507+P48169); assay: Modulation of GABA induced currents in HEK cells; type: cell-based; conditions: 0.1 to 100 μM
T8 construct: expressed in transfected cells; host or cells: HEK cells
Method: as §1, §2

T6 sequence (P47869 29-451): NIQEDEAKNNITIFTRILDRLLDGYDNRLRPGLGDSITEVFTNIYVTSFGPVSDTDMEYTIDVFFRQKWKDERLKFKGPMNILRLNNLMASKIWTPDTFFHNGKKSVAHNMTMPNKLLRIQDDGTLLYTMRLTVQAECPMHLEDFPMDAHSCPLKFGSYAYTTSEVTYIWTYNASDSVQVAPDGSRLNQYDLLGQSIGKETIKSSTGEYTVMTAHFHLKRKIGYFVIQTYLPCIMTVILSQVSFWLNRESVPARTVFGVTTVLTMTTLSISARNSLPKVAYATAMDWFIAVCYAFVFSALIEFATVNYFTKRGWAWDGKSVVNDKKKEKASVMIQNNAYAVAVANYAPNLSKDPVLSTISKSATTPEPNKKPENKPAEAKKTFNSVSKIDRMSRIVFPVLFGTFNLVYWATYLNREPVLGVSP
T6 sequence (P28472 26-473 partner): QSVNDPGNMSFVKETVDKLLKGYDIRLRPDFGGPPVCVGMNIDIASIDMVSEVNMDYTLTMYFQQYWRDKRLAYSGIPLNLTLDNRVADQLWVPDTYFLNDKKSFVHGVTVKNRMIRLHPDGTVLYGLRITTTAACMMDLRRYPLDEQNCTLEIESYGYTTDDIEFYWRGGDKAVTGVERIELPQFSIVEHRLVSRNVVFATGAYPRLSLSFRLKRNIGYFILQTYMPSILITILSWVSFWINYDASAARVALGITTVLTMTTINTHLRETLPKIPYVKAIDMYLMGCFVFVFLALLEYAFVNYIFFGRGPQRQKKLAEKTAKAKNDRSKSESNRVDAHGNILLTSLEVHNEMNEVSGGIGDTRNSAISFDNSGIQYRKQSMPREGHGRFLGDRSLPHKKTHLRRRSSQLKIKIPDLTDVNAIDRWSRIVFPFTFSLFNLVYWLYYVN
T6 sequence (P18507 40-475): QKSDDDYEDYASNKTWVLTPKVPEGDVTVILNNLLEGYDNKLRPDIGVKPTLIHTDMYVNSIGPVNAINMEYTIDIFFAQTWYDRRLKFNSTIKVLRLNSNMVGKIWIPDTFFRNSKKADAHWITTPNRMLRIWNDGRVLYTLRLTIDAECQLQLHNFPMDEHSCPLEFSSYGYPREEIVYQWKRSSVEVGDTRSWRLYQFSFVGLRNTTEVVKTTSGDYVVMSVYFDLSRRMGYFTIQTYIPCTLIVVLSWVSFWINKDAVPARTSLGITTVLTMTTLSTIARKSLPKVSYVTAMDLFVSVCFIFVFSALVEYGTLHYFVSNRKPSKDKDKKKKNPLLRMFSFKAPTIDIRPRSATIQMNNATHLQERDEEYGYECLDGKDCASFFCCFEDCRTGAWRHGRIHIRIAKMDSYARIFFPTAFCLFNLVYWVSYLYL
T5 sequence (P14867 28-456): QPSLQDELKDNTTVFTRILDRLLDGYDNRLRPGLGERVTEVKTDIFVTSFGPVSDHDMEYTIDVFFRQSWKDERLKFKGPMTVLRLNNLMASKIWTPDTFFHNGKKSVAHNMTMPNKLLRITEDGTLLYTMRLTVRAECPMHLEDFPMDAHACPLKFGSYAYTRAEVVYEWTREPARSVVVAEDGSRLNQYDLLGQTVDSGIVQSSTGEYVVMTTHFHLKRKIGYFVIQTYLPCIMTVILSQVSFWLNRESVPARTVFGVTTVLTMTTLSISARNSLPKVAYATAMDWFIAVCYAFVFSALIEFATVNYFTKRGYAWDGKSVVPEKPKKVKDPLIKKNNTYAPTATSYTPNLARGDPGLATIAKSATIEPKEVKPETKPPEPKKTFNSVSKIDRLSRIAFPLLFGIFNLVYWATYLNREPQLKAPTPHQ
T5 sequence (P28472 26-473 partner): as the sequence (P28472 26-473 partner) above
T5 sequence (P18507 40-475): as the sequence (P18507 40-475) above
T7 sequence (P31644 32-462): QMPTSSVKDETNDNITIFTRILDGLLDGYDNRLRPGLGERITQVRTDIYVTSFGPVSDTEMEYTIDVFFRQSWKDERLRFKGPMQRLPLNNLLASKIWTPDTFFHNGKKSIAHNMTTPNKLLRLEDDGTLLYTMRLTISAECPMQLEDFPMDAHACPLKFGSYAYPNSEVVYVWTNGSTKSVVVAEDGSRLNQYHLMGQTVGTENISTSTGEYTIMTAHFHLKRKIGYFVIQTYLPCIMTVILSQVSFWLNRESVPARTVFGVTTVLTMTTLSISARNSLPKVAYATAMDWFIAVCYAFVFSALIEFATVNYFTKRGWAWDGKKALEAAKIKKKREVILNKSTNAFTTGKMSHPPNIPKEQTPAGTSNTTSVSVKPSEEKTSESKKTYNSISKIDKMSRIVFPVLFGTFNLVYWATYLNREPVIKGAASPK
T7 sequence (P28472 26-473 partner): as the sequence (P28472 26-473 partner) above
T7 sequence (P18507 40-475): as the sequence (P18507 40-475) above
T8 sequence (P48169 36-554): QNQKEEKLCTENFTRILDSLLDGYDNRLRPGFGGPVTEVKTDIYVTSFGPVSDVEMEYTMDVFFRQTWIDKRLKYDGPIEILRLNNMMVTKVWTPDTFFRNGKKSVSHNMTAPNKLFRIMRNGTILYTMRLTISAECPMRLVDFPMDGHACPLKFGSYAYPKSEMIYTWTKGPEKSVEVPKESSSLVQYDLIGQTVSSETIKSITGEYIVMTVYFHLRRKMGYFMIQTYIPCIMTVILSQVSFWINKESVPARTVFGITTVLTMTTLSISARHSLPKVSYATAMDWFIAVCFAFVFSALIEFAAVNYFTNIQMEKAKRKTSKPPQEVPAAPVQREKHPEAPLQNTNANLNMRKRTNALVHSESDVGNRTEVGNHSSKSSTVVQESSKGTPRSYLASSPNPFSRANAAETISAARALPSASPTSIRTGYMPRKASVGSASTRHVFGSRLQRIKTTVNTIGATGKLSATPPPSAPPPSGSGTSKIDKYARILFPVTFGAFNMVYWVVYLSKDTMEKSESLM
T8 sequence (P28472 26-473 partner): as the sequence (P28472 26-473 partner) above
T8 sequence (P18507 40-475): as the sequence (P18507 40-475) above
T4 sequence (P34903 29-492): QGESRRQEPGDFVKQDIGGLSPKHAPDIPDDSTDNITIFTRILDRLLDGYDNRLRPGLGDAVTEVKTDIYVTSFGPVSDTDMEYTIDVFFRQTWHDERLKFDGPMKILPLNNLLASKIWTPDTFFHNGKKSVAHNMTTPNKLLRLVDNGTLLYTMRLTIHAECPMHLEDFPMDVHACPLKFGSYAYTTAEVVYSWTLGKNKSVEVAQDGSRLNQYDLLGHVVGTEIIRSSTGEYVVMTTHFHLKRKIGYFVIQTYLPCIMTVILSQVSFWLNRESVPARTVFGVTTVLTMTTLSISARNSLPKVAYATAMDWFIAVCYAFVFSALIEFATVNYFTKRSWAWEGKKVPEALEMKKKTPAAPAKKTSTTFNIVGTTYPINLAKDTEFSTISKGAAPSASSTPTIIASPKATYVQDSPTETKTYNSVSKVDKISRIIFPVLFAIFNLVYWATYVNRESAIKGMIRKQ
T4 sequence (P28472 26-473 partner): as the sequence (P28472 26-473 partner) above
T4 sequence (P18507 40-475): as the sequence (P18507 40-475) above
T3 sequence (Q16445 20-453): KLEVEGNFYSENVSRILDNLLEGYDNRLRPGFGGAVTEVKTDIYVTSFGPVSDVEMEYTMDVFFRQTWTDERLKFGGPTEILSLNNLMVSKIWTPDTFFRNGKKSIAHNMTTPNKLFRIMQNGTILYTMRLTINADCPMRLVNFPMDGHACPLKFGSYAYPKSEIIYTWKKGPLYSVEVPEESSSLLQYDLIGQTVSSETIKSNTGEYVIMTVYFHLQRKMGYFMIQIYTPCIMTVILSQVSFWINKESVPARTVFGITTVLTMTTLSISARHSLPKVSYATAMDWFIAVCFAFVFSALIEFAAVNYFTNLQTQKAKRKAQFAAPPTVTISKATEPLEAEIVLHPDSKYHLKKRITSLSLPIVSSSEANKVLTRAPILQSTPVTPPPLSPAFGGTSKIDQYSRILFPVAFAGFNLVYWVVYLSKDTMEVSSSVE
T3 sequence (P28472 26-473 partner): as the sequence (P28472 26-473 partner) above
T3 sequence (P18507 40-475): as the sequence (P18507 40-475) above

In the case of `CCCOc1cc2c(cn1)[nH]c1ccccc12.Cl` [3-PBC, 3-Propoxy-β-carboline hydrochloride], the “% of GABA response, α2” value (GABAA α2β3γ2 receptors) is listed as 116±7%, the “reversal of suppression produced by chlordiazepoxide (2.5-10 mg/kg)” value (rats) is listed as “reversed the suppression produced by chlordiazepoxide” and the “activity in observational studies vs saline controls” value (squirrel monkeys) is listed as “inactive”. For the same compound, the “% of GABA response, α1” value (GABAA α1β3γ2 receptors) was 113±4%.

In the case of `CC(C)(C)OC(=O)c1cc2c(cn1)[nH]c1ccccc12` [βCCt, β-carboline-3-carboxylate t-butyl ester], the “% of GABA response, α5” value (GABAA α5β3γ2 receptors) is reported as 88±7%, the “dose required to reduce sucrose reinforcer compared to alcohol” value ([1]; i.p.) is reported as “four-fold higher dose” and the sucrose-maintained responding ([1]; i.p. 10 mg/kg) is reported as “marked suppression”. The EtOH-maintained responding ([1]; i.p. 1-10 mg/kg, alternate-day access) was “dose-dependently suppressed”, the “reduction of EtOH responding 24 hr post-drug” value ([1]; unilateral VP infusion 2.5-7.5 μg, 24 hr post-drug administration) was 54-63 % of control levels and the EtOH-maintained responding ([1]; unilateral infusion 0.5-7.5 μg into VP) was “dose-dependently reduced”. The alcohol-maintained responding ([1]; unilateral infusion into CPu/NACC) was “completely ineffective”, the “activity at the α6 receptor in HEK cells” value (α6 GABAA receptor) was “Minimal agonist activity” and the “intrinsic activity in HEK cells, α6” value (α6 GABAA receptor) was “Intrinsic activity is seen”. The “activity at the α3 receptor in HEK cells” value (α3 GABAA receptor; 0.1 to 100 μM) was “Strong agonist activity”, the “concentration at which agonist-like effects occur, α3” value (α3 GABAA receptor; HEK cells) was 50 to 100 µM and the “activity at the α1 receptor in HEK cells” value (α1 GABAA receptor) was “Agonist and inverse-agonist activity”. For the same compound, the “intrinsic activity in HEK cells, α1” value (α1 GABAA receptor) was “Intrinsic activity is seen”, the “activity at the α2 receptor in HEK cells” value (α2 GABAA receptor; 0.1 to 100 μM) was “Strong agonist activity” and the “intrinsic activity in HEK cells, α2” value (α2 GABAA receptor; 0.1 to 100 μM) was “Intrinsic activity is seen”. The “concentration at which agonist-like effects occur, α2” value (α2 GABAA receptor; HEK cells) was 50 to 100 µM, the “activity at the α5 receptor in HEK cells” value (α5 GABAA receptor) was “Agonist and inverse-agonist activity” and the “intrinsic activity in HEK cells, α5” value (α5 GABAA receptor) was “Intrinsic activity is seen”. For the same compound, the “activity at the α4 receptor in HEK cells” value (α4 GABAA receptor) was “Moderate agonist activity” and the “intrinsic activity in HEK cells, α4” value (α4 GABAA receptor) was “Intrinsic activity is seen”.
